Literature values, collected in patent US20110168623A1, “FEED SIDE PASSAGE MATERIAL AND SPIRAL SEPARATION MEMBRANE ELEMENT” (priority 2008, published 2011).

What was measured:
[1] = tested on: Candida yeast
[2] = tested on: Pseudomonas aeruginosa
[3] = tested on: Aspergillus niger

Oc1cc(Cl)ccc1Oc1ccc(Cl)cc1Cl [triclosan, 2,4,4′-trichloro-2′-hydroxy diphenyl ether]
antibacterial effect on Candida yeast [1]: small or comparatively small antibacterial effect
antibacterial effect on Pseudomonas aeruginosa [2]: small or comparatively small antibacterial effect
antibacterial effect on Aspergillus niger [3]: small or comparatively small antibacterial effect
